Test results: patent US9376425B2, “Heterocyclic compounds as MDM2 inhibitors for the treatment of cancer” (AMGEN INC., priority 2011, dated 2016)

These compounds were tested against T1, human MDM2 (GST-hMDM2 1-188), interaction with biotinylated-p53 (1-83) (Homo sapiens, UniProt Q00987) (assay: improved HTRF assay (HTRF2 assay), inhibition of HDM2-p53 interaction). Settings: 0.2 nM GST-hMDM2, 0.5 nM biotinylated-p53, 100 mM KF.
T1 construct: Amino acid residues 1-188 of human MDM2 were expressed; made in house; host or cells: Escherichia coli
T1 sequence (Q00987 1-188): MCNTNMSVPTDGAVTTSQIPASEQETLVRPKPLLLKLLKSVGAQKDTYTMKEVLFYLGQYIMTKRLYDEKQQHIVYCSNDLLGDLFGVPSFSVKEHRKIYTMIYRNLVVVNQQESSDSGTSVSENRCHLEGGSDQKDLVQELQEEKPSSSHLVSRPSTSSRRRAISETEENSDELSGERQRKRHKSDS
Type: binding
Description: Residues 1-83 of human p53 were expressed as an amino-terminal AviTag™-TrxA-6xHis fusion protein (biotinylated p53) in E. coli. Each protein was purified from cell paste by affinity chromatography.
Specifically, 10 uL of GST-hMDM2 was incubated with 10 ul of diluted compound (various concentrations, serially diluted) in 10% DMSO for 20 minutes at room temperature. 20 uL of biotinylated-p53 was added to the GST-hMDM2+ compound mixture, and then incubated at room temperature for 60 min. 10 uL of detection buffer consisting of SA-XLent, anti-GST cryptate antibody and KF was added to GST-hMDM2, biotinylated-p53 and compound reaction and left at room temperature to reach equilibrium for >4 hrs. The final concentration of DMSO in the reaction was 2%. Time-resolved fluorescence readings were measured on a microplate multilabel reader. Percentage of inhibition was calculated relative to nutlin-3.

Row | SMILES | IC50 [nM]
1 | CN(C)C(=O)C[C@H]1O[C@H](c2cccc(Cl)c2)[C@@H](c2ccc(Cl)cc2)N([C@H](CN(c2ccccc2F)S(=O)(=O)C2CC2)C2CC2)C1=O (single isomer, unassigned) [Example 366, 2-((2R,5R,6R)-6-(3-Chlorophenyl)-5-(4-chlorophenyl)-4-((S)-1-cyclopropyl-2-(N-(2-fluorophenyl)cyclopropanesulfonamido)ethyl)-3-oxomorpholin-2-yl)-N,N-dimethylacetamide or 2-((2S,5R,6R)-6-(3-chlorophenyl)-5-(4-chlorophenyl)-4-((S)-1-cyclopropyl-2-(N-(2-fluorophenyl)cyclopropanesulfonamido)ethyl)-3-oxomorpholin-2-yl)-N,N-dimethylacetamide] | < 1
2 | CC[C@@H](CS(=O)(=O)N1CCC[C@@H]1C)N1C(=O)[C@@H](CC(=O)O)O[C@H](c2cccc(Cl)c2)[C@H]1c1ccc(Cl)cc1 (single isomer, unassigned) [Example 209, 2-((2R,5R,6R)-6-(3-chlorophenyl)-5-(4-chlorophenyl)-4-((S)-1-(((S)-2-methylpyrrolidin-1-yl)sulfonyl)butan-2-yl)-3-oxomorpholin-2-yl)acetic acid or 2-((2S,5R,6R)-6-(3-chlorophenyl)-5-(4-chlorophenyl)-4-((S)-1-(((S)-2-methylpyrrolidin-1-yl)sulfonyl)butan-2-yl)-3-oxomorpholin-2-yl)acetic acid] | 7
3 | C[C@@H](CS(=O)(=O)C(C)(C)C)N1C(=O)[C@@H](CC(=O)O)O[C@H](c2cc(F)cc(Cl)c2)[C@H]1c1ccc(Cl)c(F)c1 (single isomer, unassigned) [Example 424, 2-((2R,5R,6R)-4-((S)-1-(tert-Butylsulfonyl)propan-2-yl)-5-(4-chloro-3-fluorophenyl)-6-(3-chloro-5-fluorophenyl)-3-oxomorpholin-2-yl)acetic acid or 2-((2S,5R,6R)-4-((S)-1-(tert-butylsulfonyl)propan-2-yl)-5-(4-chloro-3-fluorophenyl)-6-(3-chloro-5-fluorophenyl)-3-oxomorpholin-2-yl)acetic acid] | 3
4 | C[C@H]1CCCN1S(=O)(=O)C[C@H](C1CC1)N1C(=O)[C@@](C)(CC(=O)O)O[C@H](c2cccc(Cl)c2)[C@H]1c1ccc(Cl)cc1 (single isomer, unassigned) [Example 337, 2-((2R,5R,6R)-6-(3-Chlorophenyl)-5-(4-chlorophenyl)-4-((S)-1-cyclopropyl-2-(((S)-2-methylpyrrolidin-1-yl)sulfonyl)ethyl)-2-methyl-3-oxomorpholin-2-yl)acetic acid or 2-((2S,5R,6R)-6-(3-chlorophenyl)-5-(4-chlorophenyl)-4-((S)-1-cyclopropyl-2-(((S)-2-methylpyrrolidin-1-yl)sulfonyl)ethyl)-2-methyl-3-oxomorpholin-2-yl)acetic acid] | 50
5 | CC(C)[C@@H](CS(=O)(=O)C(C)(C)C)N1C(=O)[C@@H](CC(=O)O)O[C@H](c2cccc(Cl)c2)[C@H]1c1ccc(Cl)c(F)c1 (single isomer, unassigned) [Example 312] | 279
6 | CC[C@@H](CN(c1ncccc1F)S(=O)(=O)C1CC1)N1C(=O)[C@@H](CC(=O)O)O[C@H](c2cccc(Cl)c2)[C@H]1c1ccc(Cl)cc1 (single isomer, unassigned) [Example 176, 2-((2R,5R,6R)-6-(3-chlorophenyl)-5-(4-chlorophenyl)-4-((S)-1-(N-(3-fluoropyridin-2-yl)cyclopropanesulfonamido)butan-2-yl)-3-oxomorpholin-2-yl)acetic acid or 2-((2S,5R,6R)-6-(3-chlorophenyl)-5-(4-chlorophenyl)-4-((S)-1-(N-(3-fluoropyridin-2-yl)cyclopropanesulfonamido)butan-2-yl)-3-oxomorpholin-2-yl)acetic acid] | < 1
7 | CC[C@@H](CS(=O)(=O)N1CCC[C@H]1C)N1C(=O)[C@@H](CC(=O)O)O[C@H](c2cccc(Cl)c2)[C@H]1c1ccc(Cl)cc1 (single isomer, unassigned) [Example 211, 2-((2R,5R,6R)-6-(3-chlorophenyl)-5-(4-chlorophenyl)-4-((S)-1-(((R)-2-methylpyrrolidin-1-yl)sulfonyl)butan-2-yl)-3-oxomorpholin-2-yl)acetic acid or 2-((2S,5R,6R)-6-(3-chlorophenyl)-5-(4-chlorophenyl)-4-((S)-1-(((R)-2-methylpyrrolidin-1-yl)sulfonyl)butan-2-yl)-3-oxomorpholin-2-yl)acetic acid] | 4
8 | Cc1n[nH]c(C[C@H]2O[C@H](c3cccc(Cl)c3)[C@@H](c3ccc(Cl)cc3)N([C@H](CN(c3ccccc3F)S(=O)(=O)C3CC3)C3CC3)C2=O)n1 (single isomer, unassigned) [Example 392, N-((S)-2-((2R,3R,6R)-2-(3-Chlorophenyl)-3-(4-chlorophenyl)-6-((3-methyl-1H-1,2,4-triazol-5-yl)methyl)-5-oxomorpholino)-2-cyclopropylethyl)-N-(2-fluorophenyl)cyclopropanesulfonamide or N-((S)-2-((2S,3R,6R)-2-(3-chlorophenyl)-3-(4-chlorophenyl)-6-((3-methyl-1H-1,2,4-triazol-5-yl)methyl)-5-oxomorpholino)-2-cyclopropylethyl)-N-(2-fluorophenyl)cyclopropanesulfonamide] | < 1
9 | CC(C)(C)SC[C@H](C1CC1)N1C(=O)[C@@H](CC(=O)O)O[C@H](c2ccc(Br)c(Cl)c2)[C@H]1c1ccc(Cl)cc1 (single isomer, unassigned) [Example 323, 2-((2R,5R,6R)-6-(4-Bromo-3-chlorophenyl)-4-((S)-2-(tert-butylthio)-1-cyclopropylethyl)-5-(4-chlorophenyl)-3-oxomorpholin-2-yl)acetic acid or 2-((2S,5R,6R)-6-(4-bromo-3-chlorophenyl)-4-((S)-2-(tert-butylthio)-1-cyclopropylethyl)-5-(4-chlorophenyl)-3-oxomorpholin-2-yl)acetic acid] | 16
10 | O=C1[C@@H](Cc2ncn[nH]2)O[C@H](c2cccc(Cl)c2)[C@@H](c2ccc(Cl)cc2)N1[C@H](CN(c1ccccc1F)S(=O)(=O)C1CC1)C1CC1 (single isomer, unassigned) [Example 396, N-((S)-2-((2R,5R,6R)-2-((1H-1,2,4-Triazol-5-yl)methyl)-6-(3-chlorophenyl)-5-(4-chlorophenyl)-3-oxomorpholino)-2-cyclopropylethyl)-N-(2-fluorophenyl)cyclopropanesulfonamide or N-((S)-2-((2S,5R,6R)-2-((1H-1,2,4-triazol-5-yl)methyl)-6-(3-chlorophenyl)-5-(4-chlorophenyl)-3-oxomorpholino)-2-cyclopropylethyl)-N-(2-fluorophenyl)cyclopropanesulfonamide] | 2
11 | CN(C)C(=O)C[C@H]1O[C@H](c2cccc(Cl)c2)[C@@H](c2ccc(Cl)cc2)N([C@H](CN(c2ccccc2F)S(=O)(=O)C2CC2)C2CC2)C1=O (single isomer, unassigned) [Example 367, 2-((2R,5R,6R)-6-(3-Chlorophenyl)-5-(4-chlorophenyl)-4-((S)-1-cyclopropyl-2-(N-(2-fluorophenyl)cyclopropanesulfonamido)ethyl)-3-oxomorpholin-2-yl)-N,N-dimethylacetamide or 2-((2S,5R,6R)-6-(3-chlorophenyl)-5-(4-chlorophenyl)-4-((S)-1-cyclopropyl-2-(N-(2-fluorophenyl)cyclopropanesulfonamido)ethyl)-3-oxomorpholin-2-yl)-N,N-dimethylacetamide] | 4
12 | O=C(O)C[C@H]1O[C@H](c2cccc(Cl)c2)[C@@H](c2ccc(Cl)cc2)N([C@H](CN(c2ccccc2F)S(=O)(=O)C2CC2)CC(F)(F)F)C1=O (single isomer, unassigned) [Example 279] | 39
13 | CC[C@@H](CS(=O)(=O)C1CCC1)N1C(=O)[C@@H](CC(=O)O)O[C@H](c2cccc(Cl)c2)[C@H]1c1ccc(Cl)cc1 (single isomer, unassigned) [Example 141, 2-((2R,5R,6R)-6-(3-chlorophenyl)-5-(4-chlorophenyl)-4-((S)-1-(cyclobutylsulfonyl)butan-2-yl)-3-oxomorpholin-2-yl)acetic acid or 2-((2S,5R,6R)-6-(3-chlorophenyl)-5-(4-chlorophenyl)-4-((S)-1-(cyclobutylsulfonyl)butan-2-yl)-3-oxomorpholin-2-yl)acetic acid] | 1
14 | NC(=O)C[C@H]1O[C@H](c2cccc(Cl)c2)[C@@H](c2ccc(Cl)cc2)N([C@H](CN(c2ccccc2)S(=O)(=O)C2CC2)C2CC2)C1=O (single isomer, unassigned) [Example 361, 2-((2R,5R,6R)-6-(3-Chlorophenyl)-5-(4-chlorophenyl)-4-((S)-1-cyclopropyl-2-(N-phenylcyclopropanesulfonamido)ethyl)-3-oxomorpholin-2-yl)acetamide or 2-((2S,5R,6R)-6-(3-chlorophenyl)-5-(4-chlorophenyl)-4-((S)-1-cyclopropyl-2-(N-phenylcyclopropanesulfonamido)ethyl)-3-oxomorpholin-2-yl)acetamide] | < 1
15 | CC[C@@H](CS(=O)(=O)C(C)C)N1C(=O)[C@@H](CC(=O)O)O[C@H](c2cc(Cl)cc(Cl)c2)[C@H]1c1ccc(Cl)cc1 (single isomer, unassigned) [Example 145, 2-((2R,5R,6R)-5-(4-chlorophenyl)-6-(3,5-dichlorophenyl)-4-((S)-1-(isopropylsulfonyl)butan-2-yl)-3-oxomorpholin-2-yl)acetic acid or 2-((2S,5R,6R)-5-(4-chlorophenyl)-6-(3,5-dichlorophenyl)-4-((S)-1-(isopropylsulfonyl)butan-2-yl)-3-oxomorpholin-2-yl)acetic acid] | 8
